Results from patent US10905139B2, “Refreshing beverage” (priority 2011, dated 2021).

Key:
[1] = tested on: cancer cells (in cancer tissue sections); details: sugar as food substrate; cited from earlier work
[2] = in vivo; cited from earlier work
[3] = tested on: cancer cells (in cancer tissue sections); experiment: fermentation metabolism of cancer cells with different sugars as food substrate (Warburg); type: cell-based; details: sugar as food substrate
Description: On the other hand, tests carried out by the Nobel prizewinner Otto Heinrich Warburg have shown that the fermentation metabolism of cancer cells (in cancer tissue sections) progresses most effectively with glucose as a food substrate, specifically at a rate of 23.9 consumed units per unit of time, whereas, with the substrate fructose, it progresses less effectively by a factor of 7 (rate 3.3), and, with galactose, progresses even less effectively by a factor of 18 (rate 1.3). […] Galactose should therefore be a key sugar source in the diet of cancer patients.

[4] = in vivo; cited from earlier work; remark: listed apart in the source

Row | SMILES | rate of fermentation metabolism [1] | glycemic index (GI) [2] | factor by which fermentation progresses less effectively than with glucose [3] | extent digested directly by the human body [4] | remaining fraction broken down by the intestinal flora [4]
1 | O=C[C@H](O)[C@@H](O)[C@H](O)[C@H](O)CO [glucose, reference compound] | 23.9 consumed units per unit of time | 100 | – | – | –
2 | O=C[C@H](O)[C@@H](O)[C@@H](O)[C@H](O)CO [galactose] | 1.3 consumed units per unit of time | 20 | 18 | – | –
3 | OC[C@H]1O[C@H](O[C@H]2O[C@H](CO)[C@@H](O)[C@H](O)[C@H]2O)[C@H](O)[C@@H](O)[C@@H]1O [trehalose] | – | ~32 | – | – | –
4 | OC[C@H]1O[C@H](OC[C@H]2OC(O)(CO)[C@@H](O)[C@@H]2O)[C@H](O)[C@@H](O)[C@@H]1O (some centres unmarked) [isomaltulose] | – | 32 | – | – | –
5 | O=C(CO)[C@@H](O)[C@H](O)[C@H](O)CO [fructose, reference compound] | 3.3 consumed units per unit of time | – | 7 | – | –
6 | OC[C@H]1O[C@@](CO)(O[C@H]2O[C@H](CO)[C@@H](O)[C@H](O)[C@H]2O)[C@@H](O)[C@@H]1O [sucrose, reference compound] | – | 65 | – | – | –
7 | O=C[C@H](O)[C@H](O)[C@H](O)CO [Ribose] | – | negative | – | – | –
8 | O=C(CO)[C@@H](O)[C@@H](O)[C@H](O)CO [Tagatose] | – | 3 | – | approximately 20% | 80%
